Assay [1] addresses T1, Urotensin-2 receptor (Homo sapiens, UniProt Q9UKP6).
T1 sequence (Q9UKP6 whole entry): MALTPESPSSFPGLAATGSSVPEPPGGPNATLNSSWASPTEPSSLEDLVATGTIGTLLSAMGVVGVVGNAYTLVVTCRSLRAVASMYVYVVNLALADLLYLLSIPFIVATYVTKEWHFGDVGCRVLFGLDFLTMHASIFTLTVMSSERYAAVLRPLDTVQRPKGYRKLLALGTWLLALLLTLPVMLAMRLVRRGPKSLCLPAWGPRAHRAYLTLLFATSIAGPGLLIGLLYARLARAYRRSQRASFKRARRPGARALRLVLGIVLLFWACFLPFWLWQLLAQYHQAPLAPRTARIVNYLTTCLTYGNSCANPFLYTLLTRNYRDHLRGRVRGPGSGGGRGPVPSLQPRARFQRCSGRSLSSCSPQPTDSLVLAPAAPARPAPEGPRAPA
Nature of the assay: Allosteric modulation of human urotensin-2 receptor expressed in HEK293 cells assessed as change in human urotensin-2-induced G12 activation by measuring urotensin-2 pEC50 at 10^-5 M preincubated for 30 mins followed by urotensin-2 addition by BRET assay (Rvb = 6.31 +/- 0.17 No_unit). A general note: In BRET a luciferase serves as donor, and the signal depends on an acceptor being close.

The target of assay [2] is T2, Urotensin-2 receptor (Rattus norvegicus, UniProt P49684).
T2 sequence (P49684 whole entry): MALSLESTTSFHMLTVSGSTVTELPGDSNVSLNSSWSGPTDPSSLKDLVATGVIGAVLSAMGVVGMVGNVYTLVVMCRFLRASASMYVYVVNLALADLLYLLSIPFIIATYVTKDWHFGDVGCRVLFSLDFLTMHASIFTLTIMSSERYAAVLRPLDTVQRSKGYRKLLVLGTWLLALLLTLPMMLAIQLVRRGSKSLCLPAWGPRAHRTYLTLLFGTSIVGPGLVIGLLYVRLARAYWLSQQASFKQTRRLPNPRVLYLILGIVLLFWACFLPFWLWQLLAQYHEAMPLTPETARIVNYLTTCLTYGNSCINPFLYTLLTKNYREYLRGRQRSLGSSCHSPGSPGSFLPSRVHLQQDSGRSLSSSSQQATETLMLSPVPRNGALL
Nature of the assay: Allosteric modulation of urotensin-2 receptor in Sprague-Dawley rat thoracic aorta assessed as change in URP-mediated aortic ring contraction by measuring URP pEC50 at 10^-5M preincubated for 15 mins followed by URP addition (Rvb = 8.09 +/- 0.03 No_unit).

Assay [3] has as its target T1, Urotensin-2 receptor. Nature of the assay: Allosteric modulation of human urotensin-2 receptor expressed in HEK293 cells assessed as change in URP-induced Gq activation by measuring URP pEC50 at 10^-5 M preincubated for 30 mins followed by URP addition by BRET assay (Rvb = 8.28 +/- 0.08 No_unit).
Assay [4] deals with T1, Urotensin-2 receptor. Nature of the assay: Allosteric modulation of human urotensin-2 receptor expressed in HEK293 cells assessed as change in URP-induced G12 activation by measuring URP pEC50 at 10^-5 M preincubated for 30 mins followed by URP addition by BRET assay (Rvb = 6.75 +/- 0.19 No_unit).
The target in assay [5] is T1, Urotensin-2 receptor. Nature of the assay: Allosteric modulation of human urotensin-2 receptor expressed in HEK293 cells assessed as change in human urotensin-2-induced Gq activation by measuring urotensin-2 pEC50 at 10^-5 M preincubated for 30 mins followed by urotensin-2 addition by BRET assay (Rvb = 7.88 +/- 0.07 No_unit).
Assay [6] concerns the target T2, Urotensin-2 receptor. Nature of the assay: Allosteric modulation of urotensin-2 receptor in Sprague-Dawley rat thoracic aorta assessed as change in human urotensin-2-mediated aortic ring contraction by measuring urotensin-2 pEC50 at 10^-5M preincubated for 15 mins followed by urotensin-2 addition (Rvb = 8.61 +/- 0.05 No_unit).
Assay [7] can be described thus: Allosteric modulation of urotensin-2 receptor in Sprague-Dawley rat thoracic aorta assessed as change in human urotensin-2-mediated aortic ring contraction by measuring urotensin-2 pEC50 at 1 uM preincubated for 15 mins followed by urotensin-2 addition (Rvb = 8.61 +/- 0.05 No_unit).
Assay [8] is described as follows: Allosteric modulation of urotensin-2 receptor in Sprague-Dawley rat thoracic aorta assessed as change in URP-mediated aortic ring contraction by measuring URP pEC50 at 1 uM preincubated for 15 mins followed by URP addition (Rvb = 8.09 +/- 0.03 No_unit).

In the case of `NCCCCN1N=C(C=Cc2ccc(O)cc2)c2ccccc2N(Cc2ccc(-c3ccccc3)cc2)C1=O`, the EC50 (in general, the concentration that produces a half-maximal response) was determined as 2190 nM on Urotensin-2 receptor [1]; 9.3 nM at Urotensin-2 receptor [2]; 4.2 nM on Urotensin-2 receptor [3]; 117 nM at Urotensin-2 receptor [4]; 14 nM at Urotensin-2 receptor [5].

Turning to `COc1ccc(CCC2=NN(CCCCN)C(=O)N(Cc3ccc4ccccc4c3)c3ccccc32)cc1`, the figures for the concentration giving a half-maximal response (EC50) at Urotensin-2 receptor [2] and at Urotensin-2 receptor [6] were 4 nM and 5 nM, respectively.

For `CC(C)[C@H](NC(=O)[C@@H]1CSSC[C@H](NC(=O)[C@H](C)N)C(=O)N[C@@H](Cc2ccccc2)C(=O)N[C@@H](Cc2ccc(-c3ccccc3)cc2)C(=O)N[C@@H](CCCCN)C(=O)N[C@@H](Cc2ccc(O)cc2)C(=O)N1)C(=O)O`, the results for the EC50 in assay [7] and in assay [8] were 25 nM and 18 nM, respectively.

Consider `CNCCCN1N=C(CCc2nc3ccccc3s2)c2ccccc2N(Cc2ccc(-c3ccccc3)cc2)C1=O`, for which the EC50 on Urotensin-2 receptor [2] came out at 4.9 nM; at Urotensin-2 receptor [6], 4.1 nM.

Turning to `NCCCCN1N=C(CCc2nc3ccccc3s2)c2ccccc2N(Cc2ccc3ccccc3c2)C1=O`, the concentration giving a half-maximal response (EC50) on Urotensin-2 receptor [2] came to 3.5 nM; at Urotensin-2 receptor [6], 3 nM.

Turning to `CNCCCCN1N=C(CCc2nc3ccccc3s2)c2ccccc2N(Cc2ccc3ccccc3c2)C1=O`, the EC50 on Urotensin-2 receptor [2] and at Urotensin-2 receptor [6] was 4.3 nM throughout.

With `COc1ccc(CCC2=NN(CCCCN)C(=O)N(Cc3ccc(-c4ccccc4)cc3)c3ccccc32)cc1`, the EC50 on Urotensin-2 receptor [2] is 5 nM; on Urotensin-2 receptor [6], 3.7 nM.

As to `CNCCCCN1N=C(CCc2nc3ccccc3s2)c2ccccc2N(Cc2cccc3ccccc23)C1=O`, the EC50 at Urotensin-2 receptor [2] is 6.6 nM; on Urotensin-2 receptor [6], 4.1 nM.

`CNCCCCN1N=C(CCc2nc3ccccc3s2)c2ccccc2N(Cc2ccc(-c3ccccc3)cc2)C1=O`: the EC50 on Urotensin-2 receptor [2] was 15 nM; on Urotensin-2 receptor [6], 6 nM.

Turning to `NCCCN1N=C(CCc2nc3ccccc3s2)c2ccccc2N(Cc2ccc3ccccc3c2)C1=O`, the EC50 on Urotensin-2 receptor [1] was 3720 nM; at Urotensin-2 receptor [2], 4 nM; at Urotensin-2 receptor [3], 6.2 nM; at Urotensin-2 receptor [4], 1950 nM; on Urotensin-2 receptor [5] it was 11 nM; on Urotensin-2 receptor [6], 3.3 nM.

As to `NCCCCN1N=C(C=Cc2ccc(O)cc2)c2ccccc2N(Cc2ccc3ccccc3c2)C1=O`, on Urotensin-2 receptor [6], the EC50 came out at 15 nM.

With `NCCCCN1N=C(CCc2ccc(O)cc2)c2ccccc2N(Cc2ccc3ccccc3c2)C1=O`, the EC50 on Urotensin-2 receptor [1] came out at 1180 nM; on Urotensin-2 receptor [2], 10 nM; at Urotensin-2 receptor [3] it was 5 nM; on Urotensin-2 receptor [4], 1100 nM; at Urotensin-2 receptor [5] it was 11 nM; on Urotensin-2 receptor [6], 4.4 nM.

As for `COc1ccc(C=CC2=NN(CCCCN)C(=O)N(Cc3ccc(-c4ccccc4)cc3)c3ccccc32)cc1`, the 50% effective concentration (EC50) at Urotensin-2 receptor [1] worked out at 2240 nM; on Urotensin-2 receptor [2], 6.3 nM; on Urotensin-2 receptor [3], 7.1 nM; on Urotensin-2 receptor [4] it was 1740 nM; on Urotensin-2 receptor [5], 8.5 nM.

`COc1ccc(C=CC2=NN(CCCCN)C(=O)N(Cc3ccc4ccccc4c3)c3ccccc32)cc1`: the EC50 worked out at 8.5 nM at Urotensin-2 receptor [2] and 3.6 nM at Urotensin-2 receptor [6].

`COc1ccc(CCC2=NN(CCCN)C(=O)N(Cc3ccc4ccccc4c3)c3ccccc32)cc1`: the EC50 was determined as 6.3 nM at Urotensin-2 receptor [2] and 4 nM on Urotensin-2 receptor [6].

Regarding `NCCCN1N=C(CCc2nc3ccccc3s2)c2ccccc2N(Cc2ccc(-c3ccccc3)cc2)C1=O`, the EC50 was determined as 3.7 nM on Urotensin-2 receptor [2] and 1.4 nM on Urotensin-2 receptor [6].

Turning to `NCCCN1N=C(CCc2nc3ccccc3s2)c2ccccc2N(Cc2cccc3ccccc23)C1=O`, the EC50 was 5.8 nM at Urotensin-2 receptor [2] and 4.8 nM on Urotensin-2 receptor [6].

`NCCCN1N=C(CCc2ccc(O)cc2)c2ccccc2N(Cc2ccc(-c3ccccc3)cc2)C1=O`: the EC50 worked out at 11 nM on Urotensin-2 receptor [2] and 4.5 nM on Urotensin-2 receptor [6].

Turning to `NCCCCN1N=C(CCc2nc3ccccc3s2)c2ccccc2N(Cc2ccc(-c3ccccc3)cc2)C1=O`, the EC50 on Urotensin-2 receptor [2] was determined as 3.7 nM; on Urotensin-2 receptor [6], 12 nM.

Regarding `NCCCCN1N=C(CCc2ccc(O)cc2)c2ccccc2N(Cc2ccc(-c3ccccc3)cc2)C1=O`, the EC50 on Urotensin-2 receptor [2] came to 20 nM; on Urotensin-2 receptor [6], 3.5 nM.

Consider `NCCCN1N=C(C=Cc2ccc(O)cc2)c2ccccc2N(Cc2ccc3ccccc3c2)C1=O`, for which the EC50 is 20 nM at Urotensin-2 receptor [2] and 12 nM on Urotensin-2 receptor [6].

In the case of `NCCCN1N=C(CCc2ccc(O)cc2)c2ccccc2N(Cc2ccc3ccccc3c2)C1=O`, the figures for the EC50 at Urotensin-2 receptor [2] and at Urotensin-2 receptor [6] were 10 nM and 3.7 nM, respectively.

Regarding `COc1ccc(CCC2=NN(CCCN)C(=O)N(Cc3ccc(-c4ccccc4)cc3)c3ccccc32)cc1`, the figures for the EC50 at Urotensin-2 receptor [2] and at Urotensin-2 receptor [6] were 7.8 nM and 3.2 nM, respectively.

These data come from BindingDB's records for doi:10.1021/acs.jmedchem.7b01525 (University of Montreal, 2017).
